Read-outs that look alike come from different tables or passages of the source. Square brackets hold non-standard residues; d marks the D form. Peptide text beside a SMILES is read from it. * marks the point of attachment. X1 = O=C(CSCC(=O)*)NCCN1C(=O)c2ccccc2C1=O; Aib = CC(C)(N)C(=O)O
Assays:
Type in all cases: cell-based
GLP-1R [1] = target: T1, GLP-1R (Homo sapiens, UniProt P43220); assay: PathHunter β-arrestin assay
Method in brief: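 Overnight-plated cells; 0.2% BSA medium; agonist 22-pt 2× dilution series, duplicate; 90 min, 37 °C/5% CO2; detection reagent 3 h RT, dark; luminescence.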

GLP-1R [2] = target: T1, GLP-1R; assay: HitHunter cAMP assay (GLP-1R); settings: cAMP; for Emax: read-out: (Emax) GLP-1R
Method in brief: (§1)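 Luminescent readout of cAMP by enzyme-fragment immunocompetition gave agonist concentration-response data. Cells (10,000/well) sat in HBSS buffer containing IBMX 625 μM, HEPES 10 mM and BSA 0.2%, exposed to agonist for 30 min at room temperature.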

GIP-R = target: T2, GIP-R (Homo sapiens, UniProt P48546); assay: HitHunter cAMP assay (GIP-R); settings: cAMP; for Emax: read-out: (Emax) GIP-R
T2 sequence (P48546 22-466): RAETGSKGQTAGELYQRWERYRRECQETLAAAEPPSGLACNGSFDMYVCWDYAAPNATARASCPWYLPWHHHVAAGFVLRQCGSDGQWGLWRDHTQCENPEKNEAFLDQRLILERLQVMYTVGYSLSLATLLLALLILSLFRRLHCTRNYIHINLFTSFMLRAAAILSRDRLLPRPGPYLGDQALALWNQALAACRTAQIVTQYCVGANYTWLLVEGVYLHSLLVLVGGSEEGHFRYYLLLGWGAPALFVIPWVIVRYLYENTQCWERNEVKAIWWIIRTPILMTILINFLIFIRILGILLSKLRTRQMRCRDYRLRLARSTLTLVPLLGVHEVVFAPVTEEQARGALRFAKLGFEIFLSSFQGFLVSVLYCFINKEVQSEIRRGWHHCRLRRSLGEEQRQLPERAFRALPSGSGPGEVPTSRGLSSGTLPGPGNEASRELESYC
Method in brief: as §1

[3] = PathHunter β-arrestin assay, read-out: β-arrestin activity EC50
[4] = Table 3A, read-out: EC50 GLP-1R/nM
[5] = Table 3A, read-out: EC50 GIP-R/nM

T1 sequence (P43220 24-463): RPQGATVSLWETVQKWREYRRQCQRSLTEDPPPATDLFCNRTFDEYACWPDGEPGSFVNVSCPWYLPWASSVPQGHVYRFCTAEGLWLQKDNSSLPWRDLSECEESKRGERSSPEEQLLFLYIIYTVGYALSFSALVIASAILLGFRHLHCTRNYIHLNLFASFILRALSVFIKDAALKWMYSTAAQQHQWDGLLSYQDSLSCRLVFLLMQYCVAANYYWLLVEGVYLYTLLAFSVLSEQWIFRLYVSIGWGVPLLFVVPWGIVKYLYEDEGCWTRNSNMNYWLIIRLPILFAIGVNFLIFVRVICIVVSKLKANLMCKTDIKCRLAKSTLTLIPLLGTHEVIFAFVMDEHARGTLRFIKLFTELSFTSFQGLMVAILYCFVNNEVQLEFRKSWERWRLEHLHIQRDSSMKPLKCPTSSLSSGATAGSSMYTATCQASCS

Structure (SMILES)	EC50 (GLP-1R [1]) [nM]	EC50 (GLP-1R [2]; EC50 GLP-1R/nM, Table 3A) [nM]	Emax (GLP-1R [2]; Table 3A) [%]	EC50 (GIP-R; EC50 GIP-R/nM, Table 3A) [nM]	Emax (GIP-R; Table 3A) [%]	EC50 (GLP-1R [2]; EC50 GLP-1R/nM, Table 3) [nM]	Emax (GLP-1R [2]; Table 3) [%]	EC50 (GIP-R; EC50 GIP-R/nM, Table 3) [nM]	Emax (GIP-R; Table 3) [%]	EC50 (GLP-1R [1]; [3]) [nM]	EC50 (GLP-1R [2]; [4]) [nM]	EC50 (GIP-R; [5]) [nM]	EC50 (GLP-1R [2]; Table 3, read-out: EC50 GLP-1R/nM) [nM]	EC50 (GIP-R; Table 3, read-out: EC50 GIP-R/nM) [nM]	Emax at 1 µM (GIP-R; read-out: (Emax) GIP-R at 1 μM, Table 3, at 1 μM) [%]
CCCCCCCCCCCCCCCC(=O)N[C@@H](CCC(=O)NCCCC[C@H](NC(=O)[C@H](CO)NC(=O)[C@@H]1CCCN1C(=O)[C@@H]1CCCN1C(=O)[C@@H]1CCCN1C(=O)[C@H](C)NC(=O)CNC(=O)[C@H](CO)NC(=O)[C@H](CO)NC(=O)[C@@H]1CCCN1C(=O)CNC(=O)CNC(=O)[C@H](C)NC(=O)[C@H](CC(C)C)NC(=O)[C@H](CC(C)C)NC(=O)[C@H](Cc1c[nH]c2ccccc12)NC(=O)[C@H](CC(N)=O)NC(=O)[C@@H](NC(=O)[C@H](Cc1ccccc1)NC(=O)[C@H](CCC(=O)O)NC(=O)C(C)(C)NC(=O)[C@H](C)NC(=O)[C@H](C)NC(=O)[C@H](CCC(N)=O)NC(=O)[C@H](CCCCN)NC(=O)[C@H](CC(=O)O)NC(=O)[C@H](CC(C)C)NC(=O)[C@H](Cc1ccc(O)cc1)NC(=O)[C@@H](NC(=O)[C@H](CO)NC(=O)[C@H](Cc1ccc(O)cc1)NC(=O)[C@H](CC(=O)O)NC(=O)[C@H](CO)NC(=O)[C@@H](NC(=O)[C@H](Cc1ccccc1)NC(=O)[C@@H](NC(=O)CNC(=O)[C@H](CCC(=O)O)NC(=O)CSCC(=O)NCCn1ccc(C)cc1=O)[C@@H](C)O)[C@@H](C)O)[C@@H](C)CC)C(C)C)C(N)=O)C(=O)O [Compound 285]	> 1000	< 0.1	99	0.1 to 1	97										
CC[C@H](C)[C@H](NC(=O)[C@H](CO)NC(=O)[C@H](Cc1ccc(O)cc1)NC(=O)[C@H](CC(=O)O)NC(=O)[C@H](CO)NC(=O)[C@@H](NC(=O)[C@H](Cc1ccccc1)NC(=O)[C@@H](NC(=O)CNC(=O)[C@H](CCC(=O)O)NC(=O)CSCC(=O)NCCN1C(=O)c2ccccc2C1=O)[C@@H](C)O)[C@@H](C)O)C(=O)N[C@@H](Cc1ccc(O)cc1)C(=O)N[C@@H](CC(C)C)C(=O)N[C@@H](CC(=O)O)C(=O)N[C@@H](CCCCN)C(=O)N[C@@H](CCC(N)=O)C(=O)N[C@@H](C)C(=O)N[C@@H](C)C(=O)NC(C)(C)C(=O)N[C@@H](CCC(=O)O)C(=O)N[C@@H](Cc1ccccc1)C(=O)N[C@H](C(=O)N[C@@H](CC(N)=O)C(=O)N[C@@H](Cc1c[nH]c2ccccc12)C(=O)N[C@@H](CC(C)C)C(=O)N[C@@H](CC(C)C)C(=O)N[C@@H](C)C(=O)NCC(=O)NCC(=O)N1CCC[C@H]1C(=O)N[C@@H](CO)C(=O)N[C@@H](CO)C(=O)NCC(=O)N[C@@H](C)C(=O)N1CCC[C@H]1C(=O)N1CCC[C@H]1C(=O)N1CCC[C@H]1C(=O)N[C@@H](CO)C(=O)N[C@@H](CCCCN)C(N)=O)[C@@H](C)CC [Compound 144] (X1-EGTFTSDYSIYLDKQAA[Aib]EFINWLLAGGPSSGAPPPSK-NH2)	> 1000	1 to 10	93 to 119	< 0.1	127 to 140	1 to 10	93 to 119	< 0.1	127 to 140						
CCCCCCCCCCCCCCCC(=O)N[C@@H](CCC(=O)NCCCC[C@H](NC(=O)[C@H](CO)NC(=O)[C@@H]1CCCN1C(=O)[C@@H]1CCCN1C(=O)[C@@H]1CCCN1C(=O)[C@H](C)NC(=O)CNC(=O)[C@H](CO)NC(=O)[C@H](CO)NC(=O)[C@@H]1CCCN1C(=O)CNC(=O)CNC(=O)[C@H](C)NC(=O)[C@H](CC(C)C)NC(=O)[C@H](CC(C)C)NC(=O)[C@H](Cc1c[nH]c2ccccc12)NC(=O)[C@H](CC(N)=O)NC(=O)[C@@H](NC(=O)[C@H](Cc1ccccc1)NC(=O)[C@H](CCC(=O)O)NC(=O)C(C)(C)NC(=O)[C@H](C)NC(=O)[C@H](C)NC(=O)[C@H](CCC(N)=O)NC(=O)[C@H](CCCCN)NC(=O)[C@H](CC(=O)O)NC(=O)[C@H](CC(C)C)NC(=O)[C@H](Cc1ccc(O)cc1)NC(=O)[C@@H](NC(=O)[C@H](CO)NC(=O)[C@H](Cc1ccc(O)cc1)NC(=O)[C@H](CC(=O)O)NC(=O)[C@H](CO)NC(=O)[C@@H](NC(=O)[C@H](Cc1ccccc1)NC(=O)[C@@H](NC(=O)CNC(=O)[C@H](CCC(=O)O)NC(=O)C(C)(C)CC(=O)NCCN1CCOCC1=O)[C@@H](C)O)[C@@H](C)O)[C@@H](C)CC)C(C)C)C(N)=O)C(=O)O [Compound 244]			100		50					10 to 1000	< 0.1	1 to 10			
CC[C@H](C)[C@H](NC(=O)[C@H](CO)NC(=O)[C@H](Cc1ccc(O)cc1)NC(=O)[C@H](CC(=O)O)NC(=O)[C@H](CO)NC(=O)[C@@H](NC(=O)[C@H](Cc1ccccc1)NC(=O)[C@@H](NC(=O)CNC(=O)[C@H](CCC(=O)O)NC(=O)C(C)(C)C(=O)NCCN1C(=O)c2ccccc2C1=O)[C@@H](C)O)[C@@H](C)O)C(=O)N[C@@H](Cc1ccc(O)cc1)C(=O)N[C@@H](CC(C)C)C(=O)N[C@@H](CC(=O)O)C(=O)N[C@@H](CCCCN)C(=O)N[C@@H](CCC(N)=O)C(=O)N[C@@H](C)C(=O)N[C@@H](C)C(=O)NC(C)(C)C(=O)N[C@@H](CCC(=O)O)C(=O)N[C@@H](Cc1ccccc1)C(=O)N[C@H](C(=O)N[C@@H](CC(N)=O)C(=O)N[C@@H](Cc1c[nH]c2ccccc12)C(=O)N[C@@H](CC(C)C)C(=O)N[C@@H](CC(C)C)C(=O)N[C@@H](C)C(=O)NCC(=O)NCC(=O)N1CCC[C@H]1C(=O)N[C@@H](CO)C(=O)N[C@@H](CO)C(=O)NCC(=O)N[C@@H](C)C(=O)N1CCC[C@H]1C(=O)N1CCC[C@H]1C(=O)N1CCC[C@H]1C(=O)N[C@@H](CO)C(=O)N[C@@H](CCCCN)C(N)=O)C(C)C [Compound 140]	> 1000	< 0.1	107	1 to 10	63	< 0.1	107	1 to 10	63						
CC[C@H](C)[C@H](NC(=O)[C@H](CO)NC(=O)[C@H](Cc1ccc(O)cc1)NC(=O)[C@H](CC(=O)O)NC(=O)[C@H](CO)NC(=O)[C@@H](NC(=O)[C@H](Cc1ccccc1)NC(=O)[C@@H](NC(=O)CNC(=O)[C@H](CCC(=O)O)NC(=O)/C=C/C(=O)NCCN1C(=O)CSC1=O)[C@@H](C)O)[C@@H](C)O)C(=O)N[C@@H](Cc1ccc(O)cc1)C(=O)N[C@@H](CC(C)C)C(=O)N[C@@H](CC(=O)O)C(=O)N[C@@H](CCCCN)C(=O)N[C@@H](CCC(N)=O)C(=O)N[C@@H](C)C(=O)N[C@@H](C)C(=O)NC(C)(C)C(=O)N[C@@H](CCC(=O)O)C(=O)N[C@@H](Cc1ccccc1)C(=O)N[C@H](C(=O)N[C@@H](CC(N)=O)C(=O)N[C@@H](Cc1c[nH]c2ccccc12)C(=O)N[C@@H](CC(C)C)C(=O)N[C@@H](CC(C)C)C(=O)N[C@@H](C)C(=O)NCC(=O)NCC(=O)N1CCC[C@H]1C(=O)N[C@@H](CO)C(=O)N[C@@H](CO)C(=O)NCC(=O)N[C@@H](C)C(=O)N1CCC[C@H]1C(=O)N1CCC[C@H]1C(=O)N1CCC[C@H]1C(=O)N[C@@H](CO)C(=O)N[C@@H](CCCCN)C(N)=O)C(C)C [Compound 167]			94 to 99				94 to 99			> 1000	0.1 to 10	> 1000	0.1 to 10	> 1000	< 1
CC[C@H](C)[C@H](NC(=O)[C@H](CO)NC(=O)[C@H](Cc1ccc(O)cc1)NC(=O)[C@H](CC(=O)O)NC(=O)[C@H](CO)NC(=O)[C@@H](NC(=O)[C@H](Cc1ccccc1)NC(=O)[C@@H](NC(=O)CNC(=O)[C@H](CCC(=O)O)NC(=O)CSCC(=O)NCCN1C(=O)c2cccnc2C1=O)[C@@H](C)O)[C@@H](C)O)C(=O)N[C@@H](Cc1ccc(O)cc1)C(=O)N[C@@H](CC(C)C)C(=O)N[C@@H](CC(=O)O)C(=O)N[C@@H](CCCCN)C(=O)N[C@@H](CCC(N)=O)C(=O)N[C@@H](C)C(=O)N[C@@H](C)C(=O)NC(C)(C)C(=O)N[C@@H](CCC(=O)O)C(=O)N[C@@H](Cc1ccccc1)C(=O)N[C@H](C(=O)N[C@@H](CC(N)=O)C(=O)N[C@@H](Cc1c[nH]c2ccccc12)C(=O)N[C@@H](CC(C)C)C(=O)N[C@@H](CC(C)C)C(=O)N[C@@H](C)C(=O)NCC(=O)NCC(=O)N1CCC[C@H]1C(=O)N[C@@H](CO)C(=O)N[C@@H](CO)C(=O)NCC(=O)N[C@@H](C)C(=O)N1CCC[C@H]1C(=O)N1CCC[C@H]1C(=O)N1CCC[C@H]1C(=O)N[C@@H](CO)C(=O)N[C@@H](CCCCN)C(N)=O)C(C)C [Compound 160]	> 1000	1 to 10	85 to 95	0.1 to 1	109 to 113	1 to 10	85 to 95	0.1 to 1	109 to 113						

From patent publication US20260176320A1, “MODULATORS OF G-PROTEIN COUPLED RECEPTORS” (priority 2018, published 2026)
